Results reported in ChEMBL document CHEMBL4373731, “Antiprotozoal alkaloid principles of the plant family Amaryllidaceae” (Bioorg Med Chem Lett, 2019).
≈ marks a conversion by molar mass, not a printed value.

How the values were obtained:
Trypanosoma cruzi = assay: Antitrypanosomal activity against Trypanosoma cruzi; assay type: functional, organism-based
Leishmania donovani = assay: […] activity against Leishmania donovani; assay type: functional, organism-based
Trichomonas vaginalis [1] = assay: Antiprotozoal activity against Trichomonas vaginalis assessed as reduction in […] at 250 ug/ml at relative to control; assay type: functional
[2] = test system: Trypanosoma brucei rhodesiense; assay: Antitrypanosomal activity against Trypanosoma brucei rhodesiense; assay type: functional, organism-based
KB = assay: Cytotoxicity against human KB cells assessed as reduction in cell viability; assay type: cell-based
[3] = Selectivity index, ratio of IC50 for Trypanosoma brucei rhodesiense to IC50 for human KB cells; assay type: toxicity; details: read-out: Ratio IC50
L6 = assay: Cytotoxicity against rat L6 cells assessed as reduction in cell viability; assay type: cell-based
Trichomonas vaginalis [4] = assay: Antitrichomonal activity against Trichomonas vaginalis assessed as reduction in parasite viability at 125 ug/ml relative to control; assay type: functional

SMILES | IC50 (Trypanosoma cruzi) | IC50 (Leishmania donovani) | IC50 [2] | other results
COc1ccc2c3c1O[C@H]1C[C@H](O)C=C[C@@]31CCN(C)C2 | > 30 µg/mL | > 30 µg/mL | – | –
O=C(O[C@H]1[C@H]2c3cc4c(cc3CN3CCC(=C[C@@H]1OC(=O)c1ccccc1)[C@H]23)OCO4)c1ccccc1 | – | – | – | Activity (Trichomonas vaginalis [1]): 84%
O=C(O[C@H]1C=C2CCN3Cc4cc5c(cc4[C@H]([C@@H]1O)[C@@H]23)OCO5)c1ccccc1 | – | – | – | Activity (Trichomonas vaginalis [1]): 35%
O=c1c2cc3c(cc2c2cccc4ccn1c42)OCO3 | 90 µg/mL (≈ 342 µM) | – | 8.4 µg/mL (≈ 31.9 µM) | –
COc1cc2c(cc1OC)[C@@]13C=CC(=O)C[C@@H]1[N@](CC3)C2 | – | – | 2.8 µg/mL (≈ 9.81 µM) | –
O[C@H]1C=C2[C@H]3CN(Cc4cc5c(cc43)OCO5)[C@H]2C[C@@H]1O | 7.1 µg/mL (≈ 24.7 µM) | > 30 µg/mL | 0.7 µg/mL (≈ 2.44 µM) | –
CCCCCCCCCCCC(=O)O[C@H]1C=C2CCN3Cc4cc5c(cc4[C@H]([C@@H]1O)[C@@H]23)OCO5 | – | – | – | Activity (Trichomonas vaginalis [1]): 97%
COc1cc2c[n+]3c4c(cc([O-])cc4c2cc1O)CC3 | > 30 µg/mL | > 30 µg/mL | > 30 µg/mL | –
COc1cc2c(cc1O)C[N@@]1C[C@H](O)[C@@]23C=C[C@@H](OC)C[C@H]13 | 88.4 µg/mL (≈ 291 µM) | > 90 µg/mL | 10.2 µg/mL (≈ 33.7 µM) | –
CN1CC[C@]23c4cc5c(cc4[C@@H]4C[C@H]2[C@H](CC[C@H]13)O4)OCO5 | 54 µg/mL (≈ 180 µM) | > 100 µg/mL | 19.2 µg/mL (≈ 64.1 µM) | –
COc1cc2c(cc1OC)[C@@H]1[C@H](OC(C)=O)[C@@H](O)C[C@H]3CC[N+]([O-])(C2)[C@H]31 (stereo partly specified) | > 90 µg/mL | > 90 µg/mL | 73.4 µg/mL (≈ 202 µM) | IC50 (KB): > 50 µg/mL; selectivity ratio [3]: > 16; IC50 (L6): > 90 µg/mL
O=c1[nH]c2c(O)cccc2c2cc3c(cc12)OCO3 | 52.7 µg/mL (≈ 207 µM) | > 90 µg/mL | 5.99 µg/mL (≈ 23.5 µM) | –
O[C@H]1[C@H]2C(=CC[C@@H]1O)[C@H]1C[N@]2Cc2cc3c(cc21)OCO3 | 54.6 µg/mL (≈ 190 µM) | > 30 µg/mL | 9.6 µg/mL (≈ 33.4 µM) | –
[O-][N@@+]12Cc3cc4c(cc3[C@]3(C=C[C@@H](O)C[C@@H]31)[C@@H](O)C2)OCO4 | > 90 µg/mL | > 90 µg/mL | > 90 µg/mL | –
O[C@H]1CC[C@H]2[N@@]3CC[C@@]2(c2cc4c(cc2C3)OCO4)[C@H]1O | – | – | 11.1 µg/mL (≈ 38.3 µM) | –
CC(=O)O[C@H]1C=C[C@@]23c4cc5c(cc4C[N@@](C[C@@H]2O)[C@H]3C1)OCO5 | 8.3 µg/mL (≈ 25.2 µM) | 17.9 µg/mL (≈ 54.3 µM) | 1.51 µg/mL (≈ 4.58 µM) | –
COc1ccc(CNCCc2ccc(O)cc2)cc1O | 58.7 µg/mL (≈ 215 µM) | 52.9 µg/mL (≈ 194 µM) | 28.6 µg/mL (≈ 105 µM) | –
O=C(O[C@H]1[C@H]2c3cc4c(cc3CN3CCC(=C[C@@H]1O)[C@H]23)OCO4)c1ccc([N+](=O)[O-])cc1 | – | – | – | Activity (Trichomonas vaginalis [1]): 58%
CN1CCc2cc3c(cc2C(=O)Cc2ccc4c(c2C1)OCO4)OCO3 | 46.3 µg/mL (≈ 131 µM) | > 90 µg/mL | 8.71 µg/mL (≈ 24.6 µM) | –
c1c2c(cc3c1[C@@H]1C[C@H]4[C@H](CC[C@@H]5NCC[C@@]354)O1)OCO2 | – | – | 18.7 µg/mL (≈ 65.5 µM) | –
O=C(O[C@H]1C=C2CCN3Cc4cc5c(cc4[C@H]([C@@H]1O)[C@@H]23)OCO5)c1ccc([N+](=O)[O-])cc1 | – | – | – | Activity (Trichomonas vaginalis [1]): 79%
COc1cc2c(cc1OC)[C@@H]1[C@H](O)[C@@H](OC)[C@H](O)C3=CCN(C2)[C@H]31 | – | – | 3.1 µg/mL (≈ 9.3 µM) | –
COc1c2c(cc3c1OCO3)[C@]13CC[N@](C2)[C@H]1CC=C[C@@H]3O | > 30 µg/mL | > 30 µg/mL | 28.8 µg/mL (≈ 95.6 µM) | –
O[C@@H]1CC[C@H]2N3CC[C@@]2(c2cc4c(cc2C3)OCO4)[C@@H]1O | – | – | 31.9 µg/mL (≈ 110 µM) | –
CC(=O)O[C@H]1C=C[C@@]23CCN(C)Cc4ccc(O)c(c42)O[C@H]3C1 | 2.3 µg/mL (≈ 7.29 µM) | – | 1.1 µg/mL (≈ 3.49 µM) | –
CN1CCC2=C[C@H](O)[C@H]3OC(=O)c4cc5c(cc4[C@H]3[C@@H]21)OCO5 | – | – | – | Activity (Trichomonas vaginalis [4]): 13%
COc1c2c(cc3c1OCO3)[C@@]13CC[N@@](C2)[C@@H]1C[C@@H](OC)[C@@H]1O[C@@H]13 | 56 µg/mL (≈ 169 µM) | > 100 µg/mL | 15 µg/mL (≈ 45.4 µM) | –
COc1cc(C=O)c(-c2cccc3c2N(C)CC3)cc1OC | – | – | – | Activity (Trichomonas vaginalis [4]): 28%; Activity (Trichomonas vaginalis [1]): 28%
